US11000533B2, “Connective tissue monitoring, compositions for connective tissue treatment and methods for treating connective tissue” (priority 2011, dated 2021)
Values joined by “and” are separate entries in the source; they are usually repeats but may differ in a detail not shown here. Identical values can stand only once.

What was measured:
[1] = tested on: acute tendon injury; test: Time until positive clinical response (disappearance of swelling, heat and pain on palpation) after medication institution; type: in vivo, horse; details: for Time until Clinical Response: acute tendon injury
Protocol: An acute tendon injury in a horse, is also known as a “Bowed Tendon”. This injury is clinically characterized by visible swelling of the tendon, heat to touch, as well as pain on palpation of the tendon. Clinical improvement of such a tendon injury is manifest by the diminution and ultimate absence of any swelling, heat and pain on palpation. The trials detailed above were carried out using the “polypaste” (multiple medications) approach to tendon injury in horses using “Tendon Guard Intense”. Three medications were used in initial tendon injury treatment: a proinflammatory cytokine inhibitor (Doxycycline 5 gm BD), an antioxidant or catechin (Green Tea extract/EGCG 5 gm BD) and an anti-inflammatory (Ibuprofen 5 gm BD). Throughout the testing process, a cohort of horses, were unable to take all of the individual ingredients planned, due to a number of reasons: The individual medication contraindications outlined, led to a cohort of horses in initial testing who consequently only received a single drug or a combination of two drugs (not three) to treat their acute tendon injury. These horses received either: All horses were carefully examined daily following acute injury and after institution of medication, by either an experienced veterinarian or trainer, for the presence of all of swelling, heat and pain on palpation of the tendon. A positive clinical response to treatment was defined as the absence of all three of swelling, heat and pain on palpation. The time from medication institution until disappearance of all three signs of swelling, heat and pain on palpation was recorded, as this was deemed the ultimate marker of clinical improvement of the tendon injury. Horses were immediately put back into light exercise once these acute signs had disappeared.

[2] = tested on: tendon injury; test: Additional studies with alternative combinations: resolution of pain and swelling; type: in vivo, horse; details: dose of 450 mg/day
Protocol: Additional studies have been performed with alternative anti-inflammatories and alternative NSAIDs. It is desirable to avoid using ibuprofen. The reason is ibuprofen stores in tissue and causes positive drug tests in racing horses. Copper indomethacin (CuIndomethacin) has been used as the anti-inflammatory and/or NSAID.
One of the advantages of CuIndomethacin is that it can be used in lower dosages. A dose of 200 mg (⅕ gram) has been used. It is hypothesized that a therapeutic effect may be achieved with 50 mg or ¼ of the usual dose or less by way of example.
In some embodiments, it is desirable to avoid using Doxycycline. The reason for this is that there is a worldwide push not to use antibiotics for purposes which are not infection related. For this reason, in som embodiments, curcumin, which is also a proinflammatory cytokine inhibitor, has been used at a dose of 450 mg/day with great success.

In the case of C[C@H]1c2cccc(O)c2C(=O)C2=C(O)[C@]3(O)C(=O)C(C(N)=O)=C(O)[C@@H](N(C)C)[C@@H]3[C@@H](O)[C@@H]21 [Doxycycline], the “Time until Clinical Response” value ([1]; individual horses (6), Doxycycline alone 5 gms BD) is reported as 27 days (2×) and 21 days (2×) and 24 days and 28 days and the “Mean time until a positive clinical response to treatment” value ([1]; mean of 6 horses, Doxycycline alone 5 gms BD) is reported as “(24.66 days)”.
O=C(O[C@@H]1Cc2c(O)cc(O)cc2O[C@@H]1c1cc(O)c(O)c(O)c1)c1cc(O)c(O)c(O)c1 [EGCG, epigallocatechin gallate] was tested, and the “Time until Clinical Response” value ([1]; individual horses (5), EGCG alone 5 gms BD) was 24 days and 21 days (2×) and 28 days and 31 days and the “Mean time until a positive clinical response to treatment” value ([1]; mean of 5 horses, EGCG alone 5 gms BD) was “(25 days)”.
CC(C)Cc1ccc(C(C)C(=O)O)cc1 (stereo not shown) [Ibuprofen] was tested, and the “Time until Clinical Response” value ([1]; individual horses (8), Ibuprofen alone 5 gm BD) was 20 days and 25 days and 19 days (2×) and 18 days and 23 days and 27 days and 24 days and the “Mean time until a positive clinical response to treatment” value ([1]; mean of 8 horses, Ibuprofen alone 5 gm BD) was “(21.9 days)”.
With COc1cc(/C=C/C(=O)CC(=O)/C=C/c2ccc(O)c(OC)c2)ccc1O [curcumin] the “Outcome of use as proinflammatory cytokine inhibitor in place of doxycycline” value [2] was “great success”.
